{
  "source": "patent US20260325464A1",
  "about": "“COMPOSITIONS FOR MODULATING THE EXPRESSION OF AQUAPORINS IN NEURODEGENERATIVE DISORDERS” (priority 2023, published 2026)",
  "assay_type_in_all_cases": "in vivo, rat",
  "key": {"Alzheimer's disease [1]": {"tested_on": "Alzheimer's disease", "experiment": "Novel object recognition (NOR) test in rats with AlCl3-induced Alzheimer's disease", "settings": "for % Recognition Index: p.o. + AlCl3 (100 mg/kg, i.p.), NOR at 15th day, Mean ± SEM, n = 6", "experimental": "Novel object recognition (NOR)—Novel object recognition (NOR)—This test was performed as per reported protocol (Antunes M, Biala G. The novel object recognition memory: neurobiology, test procedure, and its modifications. Cognit. Process. 2012:13, 93-110). During the retrieval phase, the animal was allowed to explore the field for 10 min. The hippocampal functions were assessed through the recognition indices, which were measured according to the time spent by the animals to explore the familiar and new objects.\nThe test is a relatively fast and efficient means for testing learning and memory in an animal model. The test relies on only three sessions: one habituation session, one training session, and one test session and relies on rodents' natural proclivity for exploring novelty. This is a relatively low-stress, efficient test for memory in an animal model, and is appropriate for the detection of neuropsychological changes after the administration of test drugs (Lupetow L, Novel Object Recognition Test for the Investigation of Learning and Memory in Mice, J Vis Exp. 2017; (126): 55718)."}, "Alzheimer's disease [2]": {"tested_on": "Alzheimer's disease", "experiment": "Elevated plus maze (EPM) test in rats with AlCl3-induced Alzheimer's disease", "settings": "for EPM at 16th day Transfer Latency / EPM at 17th day Transfer Latency: p.o. + AlCl3 (100 mg/kg, i.p.), Mean ± SEM, n = 6", "experimental": "Elevated plus maze (EPM)—Elevated plus maze (EPM)—This test was performed as per reported protocol (Bhuvanendran et al., Amelioration of cognitive deficit by Embelin in a Scopolamine-induced Alzheimer's disease-like condition in a rat model. Front Pharmacol. 2018:9(6):1-12 and Biradar et al., (2020) Experimental validation and network pharmacology evaluation to decipher the mechanism of action of Erythrina variegata L. bark against scopolamine-induced memory impairment in rats. Adv Tradit Med. 2020:26:1-4). EPM contains 2 closed and 2 open arms (four arms; equal dimensions of 50×10 cm). These 4 arms connect at central with a 10×10 cm square gap as an initial point. The transfer latency (TL) was recorded via stopwatch by keeping rats independently toward one side of the open arm. The EPM TL cut-off was set to 60 s throughout the study. […] Index of memory improvement is measured as a drop of transfer Latency (TL) by test drug.\nThe elevated plus maze is a test that is widely used to assess the anti-anxiety effects of test substances. As the test measures open arm activity, an increase in open arm activity (duration and/or entries) reflects anti-anxiety behaviour (Walf et al., The use of the elevated plus maze as an assay of anxiety-related behavior in rodents, Nat Protoc. 2007; 2(2): 322-328). In the present study, inducing Alzheimer's in the animals increased their anxiety which was reduced by the administration on Gingerenone A (Table 3)."}, "BDNF": {"tested_on": "BDNF", "experiment": "BDNF level in brain homogenate (ELISA), AlCl3 Alzheimer's model", "settings": "for BDNF: p.o. + AlCl3 (100 mg/kg, i.p.), brain homogenate, Mean ± SEM, n = 6", "from_the_text": "Brain-derived neurotrophic factors (BDNFs) play an important role in maintaining synaptic plasticity in learning and memory. Depletion of BDNF has been linked with Aβ accumulation, tau phosphorylation, neuroinflammation and neuronal apoptosis. Considering AD as a synaptic disorder, BDNF has attracted increasing attention as a potential diagnostic biomarker and a therapeutical molecule for AD. In the current study, BDNF levels were determiner using ELISA kit (Krishgen Biosystems, India)."}, "β-amyloid (1-42)": {"tested_on": "β-amyloid (1-42)", "experiment": "β-amyloid (1-42) level in plasma (ELISA), AlCl3 Alzheimer's model", "settings": "for β-amyloid: p.o. + AlCl3 (100 mg/kg, i.p.), plasma, Mean ± SEM, n = 6", "from_the_text": "(§1) The levels of Tau, β-amyloid (1-42) and Apolipoprotein E were estimated. using ELISA kit (Krishgen Biosystems, India). All the protein biomarkers of AD were elevated in the AD control group."}, "Tau": {"tested_on": "Tau", "experiment": "Tau level in plasma (ELISA), AlCl3 Alzheimer's model", "settings": "5, 10 and 20 mg/kg, FIG. 2", "from_the_text": "as §1"}, "Fibrinogen": {"tested_on": "Fibrinogen", "experiment": "Inflammatory marker fibrinogen (ELISA), AlCl3 Alzheimer's model", "settings": "for Fibrinogen: p.o. + AlCl3 (100 mg/kg, i.p.), Mean ± SEM, n = 6", "from_the_text": "The inflammatory markers Fibrinogen, IL-1β were estimated using ELISA kit (Krishgen Biosystems, India)."}, "Aquaporin 9 (AQP9)": {"tested_on": "Aquaporin 9 (AQP9)", "experiment": "AQP9 expression, reserpine Parkinson's model", "settings": "5, 10 and 20 mg/kg, FIG. 9", "from_the_text": "The induction of Parkinson's disease and measurement of other parameters were done as per the reported protocol (Santos et al., Cognitive, motor and tyrosine hydroxylase temporal impairment in a model of parkinsonism induced by reserpine. Behav Brain Res. 2013; 253:68-77 and Shishehbore et al. A novel kinetic spectrophotometric method for the determination of dopamine in biological and pharmaceutical samples. J Chem. 2013; 2013:1-6). Induction of Parkinson's disease was done by administering Resperine, which inhibits the monoamine vesicular transporters, thus decreasing the levels of monoamine neurotransmitters in the brain. Following pretreatment for 14 days with Gingerenone A, the rat groups received subcutaneous injections of reserpine (4 mg/kg) for the final five days of the treatment regimen. Resperine (5 mg) was dissolved in 1 ml of 1% acetic acid and then diluted tenfold with distilled water to achieve a final concentration of 500 μg/ml. The normal control group received saline with 1% acetic acid for 14 days, administered from day 10 to day 14. Thirty minutes following the administration of reserpine on the 14th day, behavioural assessments were conducted using the Open Field test, Y Maze, and Catalepsy tests to evaluate changes. Rats administered with Carbidopa, a known drug for the management of Parkinson's disease was also used for comparison. […]"}},
  "data": [
    {"smiles": "COc1cc(CC/C=C/C(=O)CCc2ccc(O)c(OC)c2)ccc1O", "note": "[Gingerenone A]", "values": [
      {"measurement": "% Recognition Index", "setting": "Alzheimer's disease [1]; 5 mg/kg", "result": "56.23 ± 2.35", "unit": "%"},
      {"measurement": "% Recognition Index", "setting": "Alzheimer's disease [1]; 10 mg/kg", "result": "65.54 ± 2.78", "unit": "%"},
      {"measurement": "% Recognition Index", "setting": "Alzheimer's disease [1]; 20 mg/kg", "result": "66.53 ± 3.20", "unit": "%"},
      {"measurement": "recognition index (in words)", "setting": "Alzheimer's disease [1]; AlCl3 model, Table 2", "result": "effectively improved the scores"},
      {"measurement": "EPM at 16th day Transfer Latency", "setting": "Alzheimer's disease [2]; 5 mg/kg", "result": "25.70 ± 0.88", "unit": "s"},
      {"measurement": "EPM at 17th day Transfer Latency", "setting": "Alzheimer's disease [2]; 5 mg/kg", "result": "25.21 ± 1.04", "unit": "s"},
      {"measurement": "EPM at 16th day Transfer Latency", "setting": "Alzheimer's disease [2]; 10 mg/kg", "result": "21.76 ± 1.03", "unit": "s"},
      {"measurement": "EPM at 17th day Transfer Latency", "setting": "Alzheimer's disease [2]; 10 mg/kg", "result": "19.37 ± 0.47", "unit": "s"},
      {"measurement": "EPM at 16th day Transfer Latency", "setting": "Alzheimer's disease [2]; 20 mg/kg", "result": "19.38 ± 0.87", "unit": "s"},
      {"measurement": "EPM at 17th day Transfer Latency", "setting": "Alzheimer's disease [2]; 20 mg/kg", "result": "18.59 ± 0.86", "unit": "s"},
      {"measurement": "anxiety in EPM (in words)", "setting": "Alzheimer's disease [2]; AlCl3 model, Table 3", "result": "reduced"},
      {"measurement": "BDNF", "setting": "BDNF; 5 mg/kg", "result": "29.36 ± 1.09", "unit": "pg/mL"},
      {"measurement": "BDNF", "setting": "BDNF; 10 mg/kg", "result": "36.07 ± 1.54", "unit": "pg/mL"},
      {"measurement": "BDNF", "setting": "BDNF; 20 mg/kg", "result": "38.76 ± 2.05", "unit": "pg/mL"},
      {"measurement": "levels of BDNF (in words)", "setting": "BDNF; AlCl3 model, Table 6", "result": "significantly increased the levels of BDNF"},
      {"measurement": "β-amyloid", "setting": "β-amyloid (1-42); 5 mg/kg", "result": "10.74 ± 0.035", "unit": "pg/mL"},
      {"measurement": "β-amyloid", "setting": "β-amyloid (1-42); 10 mg/kg", "result": "8.04 ± 0.023", "unit": "pg/mL"},
      {"measurement": "β-amyloid", "setting": "β-amyloid (1-42); 20 mg/kg", "result": "7.88 ± 0.065", "unit": "pg/mL"},
      {"measurement": "levels of β-amyloid (in words)", "setting": "β-amyloid (1-42); AlCl3 model, Table 7", "result": "significantly reduced"},
      {"measurement": "Tau levels in plasma (in words)", "setting": "Tau", "result": "significantly reduced"},
      {"measurement": "Fibrinogen", "setting": "Fibrinogen; 5 mg/kg", "result": "22.80 ± 0.738", "unit": "ng/mL"},
      {"measurement": "Fibrinogen", "setting": "Fibrinogen; 10 mg/kg", "result": "19.05 ± 0.232", "unit": "ng/mL"},
      {"measurement": "Fibrinogen", "setting": "Fibrinogen; 20 mg/kg", "result": "16.65 ± 0.431", "unit": "ng/mL"},
      {"measurement": "fibrinogen (in words)", "setting": "Fibrinogen; AlCl3 model, Table 9", "result": "significantly reduced"},
      {"measurement": "AQP9 expression (in words)", "setting": "Aquaporin 9 (AQP9)", "result": "inhibited AQP9 expression"}
    ]}
  ]
}
